# Laboratory results reported in patent US8835428B2, “Diacylglycerol acyltransferase inhibitors” (Piramal Enterprises Limited, priority 2008, dated 2014).
# Target: T1, hDGAT1 (Homo sapiens, UniProt O75907)
# T1 construct: host or cells: Sf9 insect cells (baculovirus); microsomal preparation
# T1 sequence (O75907 1-488): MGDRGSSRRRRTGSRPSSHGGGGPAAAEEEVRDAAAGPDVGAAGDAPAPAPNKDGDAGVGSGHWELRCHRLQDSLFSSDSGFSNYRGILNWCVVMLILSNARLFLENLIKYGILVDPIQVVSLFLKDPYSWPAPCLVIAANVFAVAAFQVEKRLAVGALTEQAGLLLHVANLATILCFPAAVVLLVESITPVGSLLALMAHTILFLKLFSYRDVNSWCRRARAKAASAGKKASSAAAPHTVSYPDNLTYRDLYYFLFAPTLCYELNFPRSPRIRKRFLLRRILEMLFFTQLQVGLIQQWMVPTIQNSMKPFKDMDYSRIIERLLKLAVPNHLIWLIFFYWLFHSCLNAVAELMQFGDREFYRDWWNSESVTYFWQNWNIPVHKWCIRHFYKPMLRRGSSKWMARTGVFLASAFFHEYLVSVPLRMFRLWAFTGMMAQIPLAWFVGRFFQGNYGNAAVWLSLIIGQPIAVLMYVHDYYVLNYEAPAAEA
# Experiment: In-vitro DGAT1 assay (hDGAT1 microsomes from Sf9 cells, 14C oleoyl CoA, triglyceride formation)
# Assay type: biochemical
# Conditions: At 10 μM
# Experimental: In-vitro Protocol for DGAT1 Assay
# Sf9 Culture and Treatment
# Sf9 cells were grown in T25 flasks containing Graces's Insect media with 10% FBS with antibiotic (100 units/mL penicillin, 100 μg/mL streptomycin sulphate, 0.25 μg/mL Amptotericin B as Fungizone) grown in a 27° C. incubator:
# hDGAT1ORF expression clone (RZPDo839C09146 in pDEST vector) was obtained from RZPD, Germany. hDGAT1 bacmid DNA was obtained by transformation of the hDGAT expression clone into DH10Bac E. coli competent cells. Approximately 1 μg of hDGAT1 bacmid DNA was infected into Sf9 cells with Cellfectin (Invitrogen) reagent. Following infection, Sf9 cells were incubated at 27° C. for 30 minutes. Five hours after infection, the media was replaced with growth media containing antibiotic (100 units/mL penicillin, 100 μg/mL streptomycin sulphate, 0.25 μg/mL Amptotericin B as Fungizone) and incubated at 27° C. for 72 hours. The supernatant containing the virus was centrifuged at 1500×g for 5 minutes, passed through 0.22 μm filter, and subsequently stored at 4° C. The virus was further amplified three more times by re-infection of Sf9 cells and the viral titer was determined by plaque assay.
# Preparation of DGAT1 Microsomes from Sf9 Cells
# Sf9 cells were seeded in spinner flasks on day 0 at a cell density of 1×10^6 and infected on day 1 with hDGAT1 baculovirus at a multiplicity of infection (MOI) of 5 and a cell density of 2×10^6. On day 3 (or 66-72 hours), cells were harvested and centrifuged at 2500×g for 10 minutes. Pellet was resuspended in lysis buffer (100 mM sucrose, 50 mM KCl, 40 mM KH2PO4, 30 mM EDTA, pH 7.2) and passed through 21-gauge needle approximately 10 times. The mixture was centrifuged at 12,000 rpm in a Sigma 12158-H rotor at 4° C. for 30 minutes. The supernatant was subjected to centrifugation at 35,000 rpm in a Beckman Ti-45 rotor at 4° C. for 1 hour. The resultant pellet containing the microsomes were resuspended overnight in 1 mL of lysis buffer and total protein concentration was estimated using Bradford Reagent. Microsomes were aliquoted and stored at −20° C.
# Measurement of DGAT1 Activity
# Frozen aliquots of hDGAT1 containing microsomes were thawed (5-10 mg/mL total protein) on ice and diluted to a working stock of 1 mg/mL with DGAT Assay Buffer (DAB). The DGAT reaction assay was performed by following the procedure described in U.S. Pat. No. 6,607,893 with some modifications that are described below.
# Preparation of DGAT1 substrate mixture: 1 mL stock solution of DGAT1 substrate mixture contains (i) 5.6 μL of ^14C oleoyl CoA (16.8 nCi) and 35 μL 1,2-dioleoyl-sn-glycerol (409.5 μM) or (ii) 5.6 μL of ^14C oleoyl CoA (16.8 nCi) and 105 μL 1,2-dioleoyl-sn-glycerol (1228.5 μM) or (iii) 5.6 μL of ^14C oleoyl CoA (16.8 nCi) and 140 μL 1,2-dioleoyl-sn-glycerol (1638 μM).
# 1,2-sn-dioleoylglycerol substrate concentration in the 1 mL stock solution of DGAT1 substrate mixture was varied depending on the microsome concentration used in the assay reaction. 1,2-dioleoyl-sn-glycerol stock (19.5 mM) was prepared by dissolving 25 mg of 1,2-dioleoyl-sn-glycerol (Sigma, US) in 2060 μL of acetone. The assay was performed in duplicates in a reaction volume of 100 μL. The reaction volume consisted of: • (i) 27.5 μL of DGAT assay buffer (0.25M Sucrose, 1 mM EDTA (pH 8.0), 150 mM Tris-HCl, pH 7.4, 1.25 mg/mL, fatty acid free BSA), • (ii) 10 μL of compound, of present invention or standard (dissolved in DMSO and diluted to 10× with DAB and screened at 10 μM, 5 μM and 1 μM), • (iii) 60 μL DGAT1 substrate mixture taken from a 1 mL stock (16.8 nCi of ^14C oleoyl CoA and 409.5 μM or 1228.5 μM or 1638 μM of 1,2-dioleyl-sn-glycerol), • (iv) 2.5-10 μL of 1 mg/mL of microsomes (the amount of assay buffer was varied depending upon the concentration of microsome to make up the volume to 100 μL). Procedure:
# The reaction was started by the addition of 2.5-10 μL of 1 mg/mL of microsomes (iv) to a mixture of (i), (ii) and (iii), vortexed and incubated at 37° C. for 10 minutes. […]
row,SMILES,inhibition at 10 µM [%]
1,"COC(=O)[C@H](NC(=NO)c1cc(-c2ccc(Nc3nc4ccc(F)cc4s3)cc2)no1)C(C)C [Example 40, (R)-2-({3-[4-(6-Fluoro-benzothiazol-2-ylamino)-phenyl]-N-hydroxy-isoxazole-5-carboximidoyl}-amino)-3-methyl-butyric acid methyl ester]",0 to 50
2,"CC(C)[C@@H](NC(=NO)c1cc(-c2ccc(Nc3nc4ccc(F)cc4s3)cc2)no1)C(=O)O [Example 41, (R)-2-({3-[4-(6-Fluoro-benzothiazol-2-ylamino)-phenyl]-N-hydroxy-isoxazole-5-carboximidoyl}-amino)-3-methyl-butyric acid]",0 to 50
3,"CC(C)[C@@H](NC(=O)c1cc(-c2ccc(Nc3nc4ccc(F)cc4s3)cc2)no1)C(=O)O [Example 42, (R)-2-({3-[4-(6-Fluoro-benzothiazol-2-ylamino)-phenyl]-isoxazole-5-carbonyl}-amino)-3-methyl-butyric acid]",50 to 75
4,"CC(C)[C@@H](NC(=S)c1cc(-c2ccc(Nc3nc4ccc(F)cc4s3)cc2)no1)C(=O)O [Example 43, (R)-2-({3-[4-(6-Fluoro-benzothiazol-2-ylamino)-phenyl]-isoxazole-5-carbothioyl}-amino)-3-methyl-butyric acid]",50 to 75
5,"CC(C)[C@H](NC(=O)c1cc(-c2ccc(Nc3nc4ccc(F)cc4s3)cc2)no1)C(=O)O [Example 44, (S)-2-({3-[4-(6-Fluoro-benzothiazol-2-ylamino)-phenyl]-isoxazole-5-carbonyl}-amino)-3-methyl-butyric acid]",75 to 100
6,"CC(C)[C@H](NC(=S)c1cc(-c2ccc(Nc3nc4ccc(F)cc4s3)cc2)no1)C(=O)O [Example 45, (S)-2-({3-[4-(6-Fluoro-benzothiazol-2-ylamino)-phenyl]-isoxazole-5-carbothioyl}-amino)-3-methyl-butyric acid]",50 to 75
7,"COC(=O)[C@H](CC(C)C)NC(=O)c1cc(-c2ccc(Nc3nc4ccc(F)cc4s3)cc2)no1 [Example 46, (S)-2-({3-[4-(6-Fluoro-benzothiazol-2-ylamino)-phenyl]-isoxazole-5-carbonyl}-amino)-4-methyl-pentanoic acid methyl ester]",0 to 50
8,"CC(C)C[C@H](NC(=O)c1cc(-c2ccc(Nc3nc4ccc(F)cc4s3)cc2)no1)C(=O)O [Example 47, (S)-2-({3-[4-(6-fluoro-benzothiazol-2-ylamino)-phenyl]-isoxazole-5-carbonyl}-amino)-4-methyl-pentanoic acid]",75 to 100
9,"COC(=O)[C@H](CC(C)C)NC(=S)c1cc(-c2ccc(Nc3nc4ccc(F)cc4s3)cc2)no1 [Example 48, (S)-2-({3-[4-(6-Fluoro-benzothiazol-2-ylamino)-phenyl]-isoxazole-5-carbothioyl}-amino)-4-methyl-pentanoic acid methyl ester]",0 to 50
10,"CC(C)C[C@H](NC(=S)c1cc(-c2ccc(Nc3nc4ccc(F)cc4s3)cc2)no1)C(=O)O [Example 49, (S)-2-({3-[4-(6-Fluoro-benzothiazol-2-ylamino)-phenyl]-isoxazole-5-carbothioyl}-amino)-4-methyl-pentanoic acid]",50 to 75
11,"COC(=O)[C@H](CC(C)C)NC(=NO)c1cc(-c2ccc(Nc3nc4ccc(F)cc4s3)cc2)no1 [Example 50, (S)-2-({3-[4-(6-Fluoro-benzothiazol-2-ylamino)-phenyl]-N-hydroxy-isoxazole-5-carboximidoyl}-amino)-4-methyl-pentanoic acid methyl ester]",0 to 50
12,"CC(C)C[C@H](NC(=NO)c1cc(-c2ccc(Nc3nc4ccc(F)cc4s3)cc2)no1)C(=O)O [Example 51, (S)-2-({3-[4-(6-Fluoro-benzothiazol-2-ylamino)-phenyl]-N-hydroxy-isoxazole-5-carboximidoyl}-amino)-4-methyl-pentanoic acid]",0 to 50
13,"COC(=O)[C@@H](NC(=O)c1cc(-c2ccc(Nc3nc4ccc(F)cc4s3)cc2)no1)c1ccccc1 [Example 52, (S)-({3-[4-(6-Fluoro-benzothiazol-2-ylamino)-phenyl]-isoxazole-5-carbonyl}-amino)-phenyl-acetic acid methyl ester]",0 to 50
14,"O=C(N[C@H](C(=O)O)c1ccccc1)c1cc(-c2ccc(Nc3nc4ccc(F)cc4s3)cc2)no1 [Example 53, (S)-({3-[4-(6-Fluoro-benzothiazol-2-ylamino)-phenyl]-isoxazole-5-carbonyl}-amino)-phenyl-acetic acid]",75 to 100
15,"COC(=O)[C@@H](NC(=S)c1cc(-c2ccc(Nc3nc4ccc(F)cc4s3)cc2)no1)c1ccccc1 [Example 54, (S)-({3-[4-(6-Fluoro-benzothiazol-2-ylamino)-phenyl]-isoxazole-5-carbothioyl}-amino)-phenyl-acetic acid methyl ester]",0 to 50
16,"COC(=O)[C@@H](NC(=NO)c1cc(-c2ccc(Nc3nc4ccc(F)cc4s3)cc2)no1)c1ccccc1 [Example 56, (S)-({3-[4-(6-Fluoro-benzothiazol-2-ylamino)-phenyl]-N-hydroxy-isoxazole-5-carboximidoyl}-amino)-phenyl-acetic acid methyl ester]",0 to 50
17,"O=C(O)[C@@H](NC(=NO)c1cc(-c2ccc(Nc3nc4ccc(F)cc4s3)cc2)no1)c1ccccc1 [Example 57, (S)-({3-[4-(6-Fluoro-benzothiazol-2-ylamino)-phenyl]-N-hydroxy-isoxazole-5-carboximidoyl}-amino)-phenyl-acetic acid]",0 to 50
18,"O=C(O)CNC(=O)c1cc(-c2ccc(Nc3nc4ccc(F)cc4s3)cc2)no1 [Example 59, ({3-[4-(6-Fluoro-benzothiazol-2-ylamino)-phenyl]-isoxazole-5-carbonyl}-amino)-acetic acid]",0 to 50
19,"COC(=O)CNC(=S)c1cc(-c2ccc(Nc3nc4ccc(F)cc4s3)cc2)no1 [Example 60, ({3-[4-(6-fluoro-benzothiazol-2-ylamino)-phenyl]-isoxazole-5-carbothioyl}-amino)-acetic acid methyl ester]",0 to 50
20,"O=C(O)CNC(=S)c1cc(-c2ccc(Nc3nc4ccc(F)cc4s3)cc2)no1 [Example 61, ({3-[4-(6-fluoro-benzothiazol-2-ylamino)-phenyl]-isoxazole-5-carbothioyl}-amino)-acetic acid]",0 to 50
